Assay results from patent US9504675B2, “Alpha-ketoheterocycles and methods of making and using” (The Scripps Research Institute, priority 2011, dated 2016).

Test system: mice, acute thermal pain (tail flick at 52° C.)
Assay: Mouse tail flick assay (52° C. warm water), acute thermal pain
Assay type: in vivo, mouse (CD-1)
Conditions: i.v. administration
Procedure: Concurrent with these studies, two prototypical inhibitors 12 and 14 were examined for antinociceptive activity in a preclinical model of acute thermal pain (tail flick at 52° C.) in mice alongside 2 and morphine (i.v. administration).
Male CD-1 (25-35 g, Charles River) mice were housed in groups of five in Plexiglas chambers with food and water available ad libitum. All animals were maintained on a 12 h light/dark cycle (lights on at 7:00 AM) in a temperature- and humidity-controlled animal colony. All tail-flick experiments were performed under an approved University of New England animal protocol in accordance with institutional guidelines and in accordance with the Guide for the Care and Use of Laboratory Animals as adopted and promulgated by the National Institutes of Health. Efficacy of the test compound was assessed using the 52° C. warm water tail-flick test. The latency to the first sign of a rapid tail-flick was taken as the behavioral endpoint. Each mouse was first tested for baseline latency by immersing its tail in the water and recording the time to response. Mice not responding within 5 sec were excluded from further testing. Mice were then administered the test compound and tested for antinociception at various time points afterwards. Antinociception was calculated by the following formula: % Antinociception=100×(test latency−control latency)/(10−control latency). A maximum score was assigned (100%) to animals not responding within 10 sec to avoid tissue damage.

## CN1CC[C@]23c4c5ccc(O)c4O[C@H]2[C@@H](O)C=C[C@H]3[C@H]1C5 [morphine, reference compound]
  duration of antinociceptive effect: 150 min
